Measurements as given in US20150004144A1, “DIFFERENTIATION INTO BROWN ADIPOCYTES” (THE GENERAL HOSPITAL CORPORATION, priority 2011, published 2015).

What was measured:
pAKT(S473) = assay: Western blot of insulin-induced AKT phosphorylation; type: cell-based, human; settings: programmed white adipocytes, vs basal starved state
Description: Finally, it was determined whether the programmed white adipocytes respond to insulin in a manner similar to mature primary white adipocytes. […] Insulin response was examined by assessing protein expression levels of AKT and phosphorylated AKT [pAKT(S473)] (FIG. 4D).
Western blot analysis. Western blot analysis was carried out using following antibodies: total AKT (Cell signaling #9272), phospho-Ser 473 AKT (Cell signaling #9271), Lamin A/C (Fisher/Millipore #3211).

[1] = system: BJ RiPS MPC derived adipocytes; assay: Glucose uptake assay ([3H]-2-deoxy-D-glucose); type: cell-based, human; settings: 100 nM insulin 30 min; P=0.05 unprogrammed, P=0.0007 PPARG2-programmed cells
Description: Glucose uptake assay. Adipocytes were serum-starved in 0.2% BSA DMEM overnight. Then, cells were incubated in KRH buffer (121 mM NaCl, 4.9 mM KCl, 1.2 mM MgSO4, 0.33 mM CaCl2, 12 mM HEPES, pH7.4) in the absence or presence of 100 nM insulin for 30 min at 37° C., followed by washing three times in KRH buffer. Glucose uptake was measured by incubating cells with 0.5 μCi/ml 2-deoxy-D-[3H] glucose (Perkin-Elmer) for 5 min at 37° C. After cold PBS washing three times, cells were lysed with 1% Triton X-100 solution and subjected to scintillation counting. Non-specific uptake was measured in the presence of 10 μM of cytochalasin B and subtracted from total uptake.

hPSC-derived adipocytes [2] = assay: Cellular OCR and ECAR (extracellular flux analyzer); type: cell-based, human; settings: all cell types; 5 μM antimycin A after oligomycin and CCCP
Description: To further distinguish between white and brown adipocytes at a functional level, the characterization was extended to the mitochondrial function of our cells. […] Compounds were then injected that modulate mitochondrial function sequentially and the effect on OCR and ECAR was measured after the addition of each compound. Oligomycin was first administered to determine ATP turnover and the degree of proton leak. […] After the addition of the electron transport chain decoupler carbonyl cyanide m-chlorophenylhydrazone (CCCP), the maximal respiratory capacity was measured. […] Finally, antimycin was administered to inhibit the flux of electrons through complex III and prevent oxygen consumption by the cytochrome c oxidase in the mitochondria.
Measurement of cellular OCR and ECAR. Cells were plated in gelatin-coated XF24-well cell culture microplates (Seahorse Bioscience) and differentiated into adipocytes. Cells were incubated in prewarmed unbuffered DMEM medium (DMEM containing 2 mM GlutaMax, 1 mM sodium pyruvate, 1.85 g/l NaCl, and 25 mM glucose) for 1 hour. The oxygen consumption was measured by the XF24 Extracellular Flux Analyzer (Seahorse Biosciences). […] OCR and ECAR were determined by plotting the oxygen tension and acidification of the medium in the chamber as a function of time and normalized by protein concentration (pmol/min/mg and mpH/min/mg), respectively.

hPSC-derived adipocytes [3] = assay: Lipolysis assay (glycerol release); settings: PPARG2-programmed, differentiated ADSVCs and MPCs; ADSVCs P=0.01, MPCs P=0.002; n=3
Description: Lipolysis assay. […] The culture media was collected for glycerol measurement using the Free Glycerol reagent (Sigma #F6428). Protein concentrations used to normalize glycerol content were measured using the Bradford protein assay (BioRad). Glycerol release was expressed in μg glycerol per mg total protein or the lowest value is set to 1.

Question: For insulin: insulin (Sigma), which “pAKT(S473) after insulin” value (pAKT(S473)) is on record?
Answer: robustly upregulated pAKT(S473)

Question: What about the “glucose uptake after exposure to insulin” value [1] of the same compound?
Answer: significant increase in the glucose uptake

Question: Which OCR after antimycin (hPSC-derived adipocytes [2]) does the source give for antimycin here?
Answer: dropped to post-oligomycin levels

Question: For `CC(C)NCC(O)c1ccc(O)c(O)c1` (stereo not shown) [isoproterenol], which “release of glycerol after isoproterenol” value (hPSC-derived adipocytes [3]) is on record?
Answer: breakdown of triglycerides and release of glycerol
